Structures are written as SMILES. Numbers after ± are expanded uncertainties.

The conditions of the data set: Crystal; DTA.
As for `O=C(/C=C/c1ccc(-c2cccc([N+](=O)[O-])c2)o1)c1ccco1`, the Normal melting temperature came to 178.00 ± 1 °C.
On to `O=C(/C=C/c1ccc(-c2cccc([N+](=O)[O-])c2)o1)c1ccc(O)cc1`, for which the Normal melting temperature amounted to 152.00 ± 1 °C.
As to `O=C(/C=C/c1ccc(-c2cccc([N+](=O)[O-])c2)o1)c1ccc(Br)cc1`, the Normal melting temperature amounted to 160.00 ± 1 °C.
Take `O=C(/C=C/c1ccc(-c2cccc([N+](=O)[O-])c2)o1)c1ccccc1` [(E)-3-(5-(3-nitrophenyl)furan-2-yl)-1-phenylprop-2-en-1-one]: the Normal melting temperature stood at 142.00 ± 1 °C.
The result for `O=C(/C=C/c1ccc(-c2cccc([N+](=O)[O-])c2)o1)c1cc2ccccc2oc1=O` reads 172.00 ± 1 °C; that for `Nc1ccc(C(=O)/C=C/c2ccc(-c3cccc([N+](=O)[O-])c3)o2)cc1`, 171.00 ± 1 °C.
In the case of `COc1ccc(C(=O)/C=C/c2ccc(-c3cccc([N+](=O)[O-])c3)o2)cc1`, the Normal melting temperature was found to be 141.00 ± 1 °C.
The result for `O=C(/C=C/c1ccc(-c2cccc([N+](=O)[O-])c2)o1)c1ccc(Cl)cc1` reads 170.00 ± 1 °C.
The value for `O=C(/C=C/c1ccc(-c2cccc([N+](=O)[O-])c2)o1)c1ccc([N+](=O)[O-])cc1` was 218.00 ± 1 °C.
On to `O=C(/C=C/c1ccc(-c2cccc([N+](=O)[O-])c2)o1)c1cccc([N+](=O)[O-])c1`, for which the Normal melting temperature amounted to 180.00 ± 1 °C.

Values taken from the NIST ThermoML archive (doi:10.1021/je900370q).
